The text below walks through data of patent publication US11912755B2, “Endostatin fragments and variants for use in treating fibrosis” (iBio, Inc., priority 2015, dated 2024).

Assay [1] has as its system human primary skin fibroblasts. The experiment in a line: Western blot of ECM production in primary skin fibroblasts. Conditions: dermal fibroblasts of healthy controls, SSc or morphea patients. It is filed as cell-based. On the procedure: Primary Fibroblast Culture. Human primary lung and skin fibroblasts were cultured. The explanted lungs of normal organ donors, patients with SSc or IPF, and clinically involved skin of SSc patients, a morphea patient and healthy donors were used for primary fibroblast culture. Approximately 2-cm pieces of peripheral lung and skin were minced and fibroblasts were cultured in Dulbecco's modified Eagle's medium (DMEM; Mediatech, Herndon, Va.) supplemented with 10% FBS, penicillin, streptomycin, and anti-mycotic agent, as previously described (Feghali et al., Arthritis Rheum 1999; 42:1451-7). All the cells were used between passages 3-6.
Western Blot Analysis. Cellular lysates were obtained from cultured fibroblasts as previously described (Pilewski et al., Am J Pathol 2005; 166:399-407). […] Cellular lysates were analyzed by Western blot. Signals were detected following incubation with horseradish peroxidase-conjugated secondary antibody and chemiluminescence (Perkin Elmer Life Sciences, Inc., Boston, Mass.). The intensity of individual bands with expected molecular sizes was semi-quantitatively analyzed using the image/J® software available at on the Internet (/rsb.info.nih.gov/ij/index.html), and normalized to individual GAPDH intensity.

Assay [2] relates to bleomycin induced lung fibrosis. The assay can be described thus: Bleomycin-induced pulmonary fibrosis in mice (E4). The class given is in vivo, mouse. On the procedure:
FIG. 10A-10C. E4 attenuates bleomycin induced lung fibrosis in vivo. FIG. 10A: Sixty μg of bleomycin was administrated intratracheally in combination with DMSO as a vehicle (Bleo) or E-4 (Bleo+E-4; 10 μg/ml). In some mice, E-4 (10 μg/ml) was administered intratracheally (IT) three days following bleomycin treatment (Bleo+E-4L). PBS was used as a vehicle for bleomycin (V). Lungs were harvested 10 days post-treatment. Representative images stained with H&E (left panel) and Masson trichrome (right panel) are representative of 3 independent experiments. Magnification, 100×. […] FIG. 10B: Quantification of acid soluble collagen obtained from mouse lungs treated with V. Bleo, Bleo+E-4, and Bleo+E-4L. The levels of collagen are presented as μg/mg (lung) from three independent experiments. Unpaired-t test was used for statistical analysis. *P<0.05. […] FIG. 10C: Lower magnification (2×) of mouse lung shown in FIG. 9 (BLM+E4/E4L IT day 10). For Bleo+E4L, Bleo was administered first, then there was a lag of three days between Bleo and E4 administration).
FIG. 11. […]
E4, a peptide representing the carboxy terminus of human endostatin, can attenuate fibrosis triggered by multiple fibrogenic factors. The anti-fibrotic effects of E4 can be detected whether administered concomitantly with or following the fibrogenic trigger. […]
For these studies, fibrosis was assessed by measurement of dermal thickness on H&E skin sections (skin), assessment of collagen levels by Masson Trichrome staining (skin and lung), and measurement of collagen levels by Sircol assay (lung). Furthermore, to confirm the mechanism by which E4 exerts its anti-fibrotic effects, the production of extra-cellular matrix (ECM) components, the levels of enzymes that promote matrix stabilization and thus accumulation and levels of those that degrade ECM components, and levels of transcription factors downstream of the pro-fibrotic triggers were evaluated. Results were assessed using the unpaired t test and the 3-way ANOVA (for the ID1 data).

The subject of a further assay is ID1. The experiment in a line: Real-time PCR of ID1 mRNA in primary human lung fibroblasts. The class given is cell-based. On the procedure: FIG. 15. […] Real-time PCR analysis was performed to determine the ID1 mRNA levels under the indicated conditions.
(In qPCR the cycle at which signal appears reflects the starting amount.)

The next assay has as its system PAI-1. The assay can be described thus: Genes regulated by E4: PAI-1. The note with it: HuF-T and mouse bleomycin model of pulmonary fibrosis; RT-qPCR, protein expression. The class given is cell-based, human. The protocol:
(§1) Several experiments have been performed to identify the mechanisms by which E4 exerts its anti-fibrotic activity. Real-time quantitative PCR (qPCR)-based arrays were performed on RNA extracted from primary human lung fibroblasts or mouse lung tissue stimulated with various fibrotic triggers in the absence and presence of E4 treatment in order to identify genes influenced by the endostatin peptide.
(§2) The arrays identified several genes that have been previously implicated in fibrosis to be influenced by E4 treatment. These genes included connective tissue growth factor (CTGF), insulin-like growth factor binding protein (IGFBP)-3, matrix metalloproteases (MMP)-1 and MMP-3, urokinase plasminogen activator (uPA), plasminogen activator inhibitor (PAI)-1, and hepatocyte growth factor (HGF) with levels either decreased or increased in the presence of E4 as shown in TABLE 5.

Another assay deals with HGF. The assay can be described thus: Genes regulated by E4: HGF. Conditions: HuF-T and mouse bleomycin model of pulmonary fibrosis; RT-qPCR, protein expression. It is filed as cell-based, human. On the procedure:
as §1, §2

For another assay, the system named is MMP-1. The assay can be described thus: Genes regulated by E4: MMP-1. Conditions: HuF-T; RT-qPCR, protein expression levels, zymography, MMP-1 activity assay. It is filed as cell-based, human. The protocol: as §1, §2
Assay [3] relates to bleomycin induced dermal fibrosis. The note with it: s.c.; single dose prophylactically, or multiple dose regimen starting 3 days after bleomycin; cited from earlier work.

Entries after “also recorded” stand apart in the source; their conditions may differ. Ends that are not written are not given here.

As to “E4: SEQ ID NO: 21, amino acids 133-180 of human endostatin with a C-terminal amide (SYCETWRTEAPSATGQASSLLGGRLLGQSAASCHHAYIVLCIENSFMT-NH2; cysteine pairing not given here)”, the “TGF-β-induced ECM production” value in assay [1] was “reduced”. Also, the “fibrosis and Masson Trichrome staining in lung” value in assay [2] (E4 10 μg/ml IT concomitantly with or three days following bleomycin, day 10) was “marked reduction”. For the same substance, the “collagen levels in mouse lungs” value in assay [2] (E4 given 3 days after bleomycin, acid soluble collagen) is on record as “significantly reduced”. In assay [2] (bleomycin IT day 1, E4 IP or IT at day 3), the “bleomycin induced lung fibrosis on day 21” value is recorded as “significant attenuation”. For the same substance, the ID1 levels result with ID1 is reported as “increases; also recorded: inducing expression”. Further, in the assay on PAI-1, the “Effect of E4 peptide on PAI-1” value is given as “reduces; also recorded: Decrease”. Besides, the “Effect of E4 peptide on HGF” value with HGF is “induces conversion of pro-HGF to its active chains; also recorded: Increase”. The “Effect of E4 peptide on MMP-1” value in the assay with MMP-1 was “induces; also recorded: Increase; also recorded: increased levels and activity”. In addition, in assay [3], the skin thickness entry is “E4 significantly decreased skin”.
